Measured values from US6291405A, “Glycol based drilling fluid” (M-I LLC, priority 1998, dated 2001).

Experiments:
[1] = Viscosity properties of glycols, Fann 35A viscometer readings; format: physicochemical
Procedure: Readings were taken on a Fann 35A viscometer at 600 and 300 rpm both at room temperature and 120° F.

[2] = cited from earlier work; for toxicity ranking: based on laboratory test data, direct ingestion; for LD50: single-dose oral
[3] = Gumbo shale sticking test, diethylene glycol/water plus 10% GMO; settings: in words
Procedure: This test was conducted using the test method described in example 2, except each test sample contained 10% glycerol monooleate (GMO) as the antisticking agent.

Compound: CC(CO)CO [2-Methyl Propyl 1,3-Diol, reference compound]
- Fann 35A viscometer reading ([1]; 120° F, 300 rpm): 42
- Fann 35A viscometer reading ([1]; 120° F, 600 rpm): 80
- Fann 35A viscometer reading ([1]; Room Temperature, 300 rpm): 216
- Fann 35A viscometer reading ([1]; Room Temperature, 600 rpm): > 300

Compound: OCCOCCO [Diethylene Glycol, diethylene glycol]
- toxicity ranking [2]: followed by diethylene, triethylene, and dipropylene glycols
- LD50 [2]: 16-21 gm/KG

Compound: OCCO [Ethylene Glycol, ethylene glycol]
- toxicity ranking [2]: the most toxic
- LD50 [2]: 6-12 gm/KG

Compound: OCC(O)CO [Glycerine, reference compound]
- Fann 35A viscometer reading ([1]; 120° F, 300 rpm): 135
- Fann 35A viscometer reading ([1]; 120° F, 600 rpm): 262
- Fann 35A viscometer reading ([1]; Room Temperature, 300 rpm): > 300
- Fann 35A viscometer reading ([1]; Room Temperature, 600 rpm): > 300

Compound: CC(O)CO (centres unmarked) [Propylene Glycol, propylene glycol]
- Fann 35A viscometer reading ([1]; 120° F, 300 rpm): 15
- Fann 35A viscometer reading ([1]; 120° F, 600 rpm): 28
- Fann 35A viscometer reading ([1]; Room Temperature, 300 rpm): 47
- Fann 35A viscometer reading ([1]; Room Temperature, 600 rpm): 92
- toxicity ranking [2]: the least toxic
- LD50 [2]: 21-34 gm/KG

Compound: OCCOCCOCCO [Triethylene Glycol, triethylene glycol]
- Fann 35A viscometer reading ([1]; 120° F, 300 rpm): 16
- Fann 35A viscometer reading ([1]; 120° F, 600 rpm): 31
- Fann 35A viscometer reading ([1]; Room Temperature, 300 rpm): 42
- Fann 35A viscometer reading ([1]; Room Temperature, 600 rpm): 83
- toxicity ranking [2]: followed by diethylene, triethylene, and dipropylene glycols
- LD50 [2]: 16-22 gm/KG

Compound: CC(O)COC(C)COC(C)CO (centres unmarked) [Tripropylene Glycol, tripropylene glycol]
- Fann 35A viscometer reading ([1]; 120° F, 300 rpm): 18
- Fann 35A viscometer reading ([1]; 120° F, 600 rpm): 34
- Fann 35A viscometer reading ([1]; Room Temperature, 300 rpm): 59
- Fann 35A viscometer reading ([1]; Room Temperature, 600 rpm): 116
- toxicity ranking [2]: the most toxic

Compound: CCCCCCCC/C=C\CCCCCCCC(=O)OCC(O)CO (centres unmarked) [glycerol monooleate]
- antisticking properties [3]: improved the antisticking properties of the diethylene glycol fluids

Compound: butylene glycol
- toxicity ranking [2]: the least toxic
- LD50 [2]: 23-30 gm/KG

Compound: dipropylene glycol
- Fann 35A viscometer reading ([1]; 120° F, 300 rpm): 21
- Fann 35A viscometer reading ([1]; 120° F, 600 rpm): 41
- Fann 35A viscometer reading ([1]; Room Temperature, 300 rpm): 82
- Fann 35A viscometer reading ([1]; Room Temperature, 600 rpm): 163
- toxicity ranking [2]: followed by diethylene, triethylene, and dipropylene glycols
- LD50 [2]: ~ 15 gm/KG
